The values that follow come from publication PMC8070564, “Synthesis and Antiviral Activity of Camphene Derivatives against Different Types of Viruses” (Molecules, 2021).

A word on the IC50: it is the concentration that inhibits the measured activity by half.

Data set [1] in a line: in vitro. Particulars: human.
Data set [2] is described as follows: in vitro. The note with it: African green monkey.
Data set [3] deals with influenza virus A/Puerto Rico/8/34 (H1N1). Nature of the data set: microbe, parasite or virus in culture. Type of data set: cell-based. Particulars: H1N1, MDCK, read-out: IC50 H1N1.
The nature of data set [4]: in vitro. Particulars: dog.
Another data set concerns rVSV-ΔG-MarV-GP. Nature of the data set: organism not typed. In kind it is cell-based, Marburg pseudotype viruses. Particulars: HEK-293T, read-out: IC50 MarV-GP.
Data set [5] can be described thus: in vitro. Particulars: African green monkey. This is another data set of the same source.
Data set [6] is described as follows: Cytotoxicity in HEK293T cells (Table 5). Particulars: human.
The test system of another data set is rVSV-ΔG-G. Nature of the data set: microbe, parasite or virus in culture. Type of data set: cell-based. The note with it: Vesicular stomatitis virus, HEK-293T, read-out: IC50 VSV-G.
A further data set concerns EBOV (strain Zaire). Nature of the data set: microbe, parasite or virus in culture. In kind it is cell-based, Ebola virus (EBOV). The note with it: for IC50: read-out: IC50 EBOV.
Another data set concerns rVSV-ΔG-EboV-GP. Nature of the data set: microbe, parasite or virus in culture. Type of data set: cell-based, Ebola pseudotype viruses. The note with it: Zaire ebolavirus, HEK-293T, read-out: IC50 EboV-GP.
The next data set deals with rVSV-ΔG-Gn-Gc. Nature of the data set: microbe, parasite or virus in culture. The note with it: Orthohantavirus hantanense, HEK-293T, read-out: IC50 rVSV-ΔG-Gn-Gc. Type of data set: cell-based, Hantaan virus strain 76–118.
Another data set relates to vaccinia virus (VV). The note with it: cited from earlier work.
Data set [7] deals with influenza virus A/Puerto Rico/8/34 (H1N1). The note with it: cited from earlier work.
The test system of data set [8] is Marburg virus (MARV) (strain Popp). Particulars: cited from earlier work.
In data set [9] the test system is Ebola virus (EBOV) (strain Zaire). Particulars: cited from earlier work.
The test system of data set [10] is vaccinia virus (strain Copenhagen). As to the kind of experiment: microbe, parasite or virus in culture. In kind it is cell-based. The note with it: Orthopoxvirus vaccinia, Vero, read-out: IC50 VV.

Where two headings read alike, the source gives them in different places.

In the data set “in vitro [1]”, `CN[C@H]1CC[C@@H](c2ccc(Cl)c(Cl)c2)c2ccccc21` [Sertraline, sertraline, reference compound] displayed a CC50 of 408 ± 35.9 µM.

Turning to `CC1CCN(CCCO[C@@H]2C[C@H]3CC[C@]2(C)C3(C)C)CC1` (racemic) [Compound 4b, (±)-4-Methyl-1-(3-(1,7,7-trimethylbicyclo(2.2.1)heptan-2-yloxy)propyl)piperidine], the CC50 in the data set “in vitro [2]” was 40.9 ± 2.7 µM; in the data set “in vitro [1]” it was 141 ± 3.4 µM; in “in vitro [4]”, 491 ± 32.2 µM. The IC50 in data set [3] came to 69.7 ± 8.4 µM; in the data set on rVSV-ΔG-MarV-GP, 96.1 ± 3.4 µM.

On to `CC1(C)[C@@H]2CC[C@@]1(C)[C@H](OCCN1CCN(Cc3ccccc3)CC1)C2` (racemic) [Compound 6a, (±)-1-Benzyl-4-(2-(1,7,7-trimethylbicyclo(2.2.1)heptan-2-yloxy)ethyl)piperazine], for which the CC50 is 14 ± 1.7 µM in the data set “in vitro [2]”, 575 ± 11.2 µM in “in vitro [1]” and 33.7 ± 2.8 µM in the data set “in vitro [4]”. Besides, the IC50 in data set [3] turned out to be 3.4 ± 0.5 µM.

On to `CC1(C)[C@@H]2CC[C@@]1(C)[C@H](OCCN1CCCC1)C2` (racemic) [Compound 2a, (±)-1-(2-(1,7,7-Trimethylbicyclo(2.2.1)heptan-2-yloxy)ethyl)pyrrolidine], for which the CC50 was 231 ± 16.5 µM in “in vitro [5]”, 358 ± 27.8 µM in [6], 497 ± 8 µM in the data set “in vitro [1]” and over 1190 µM in “in vitro [4]”. Further, the IC50 is 123 ± 4 µM with rVSV-ΔG-G; 45.3 ± 5.2 µM in data set [3]; 18.3 ± 3.1 µM in the data set on EBOV (strain Zaire) (Zaire ebolavirus, Vero); 0.12 ± 0.04 µM in the data set with rVSV-ΔG-EboV-GP; 9.1 ± 1.2 µM in the data set with rVSV-ΔG-Gn-Gc; 73.6 ± 1.9 µM in the data set with rVSV-ΔG-MarV-GP.

As to `CC1(C)[C@@H]2CC[C@@]1(C)[C@H](OCCN1CCOCC1)C2` (racemic) [Compound 7a, (±)-4-(2-(1,7,7-Trimethylbicyclo(2.2.1)heptan-2-yloxy)ethyl)morpholine], the results for the CC50 (in data set [6]; in “in vitro [1]”; in “in vitro [4]”) were 1160 ± 56.1 µM, 860 ± 22.4 µM and 385 ± 19.7 µM, respectively. Further, the IC50 with rVSV-ΔG-G stood at 935 ± 26.2 µM; in data set [3], 252 ± 31.1 µM; with EBOV (strain Zaire) (Zaire ebolavirus, Vero), 5.63 µM; in the data set on EBOV (strain Zaire) it was 5.6 ± 0.9 µM; in the data set with rVSV-ΔG-EboV-GP, 0.6 ± 0.2 µM; in the data set with rVSV-ΔG-Gn-Gc, 14.8 ± 1.9 µM. Also, the IC50 in the data set on rVSV-ΔG-MarV-GP was 150 ± 3.7 µM.

For `CC1(C)[C@H]2CC[C@]1(C)[C@H](OC(=O)CCN1CCOCC1)C2` [Id], the IC50 with vaccinia virus (VV) was 3.4 µM; in data set [7], 12.2 µM.

Consider `CC1(C)[C@@H]2CC[C@@]1(C)[C@H](OCCN1CCCCC1)C2` (racemic) [Compound 3a, (±)-1-(2-(1,7,7-Trimethylbicyclo(2.2.1)heptan-2-yloxy)ethyl)piperidine], for which the CC50 was 55.9 ± 12.2 µM in the data set “in vitro [5]”, 151 ± 18.8 µM in data set [6], 942 ± 18.8 µM in “in vitro [1]” and over 1130 µM in the data set “in vitro [4]”. Moreover, the IC50 was 942 ± 18.8 µM in the data set with rVSV-ΔG-G; 64.8 ± 5.9 µM in [3]; 15.2 ± 2.1 µM in the data set with EBOV (strain Zaire) (Zaire ebolavirus, Vero); 6.3 ± 0.3 µM in the data set with rVSV-ΔG-EboV-GP; 5 ± 0.8 µM with rVSV-ΔG-Gn-Gc.

For `CC1(C)[C@@H]2CC[C@@]1(C)[C@H](OCCCN1CCN(Cc3ccccc3)CC1)C2` (racemic) [Compound 6b, (±)-1-Benzyl-4-(3-(1,7,7-trimethylbicyclo(2.2.1)heptan-2-yloxy)propyl)piperazine], the CC50 in the data set “in vitro [2]” came out at 21.3 ± 2.2 µM; in “in vitro [1]” it was 148 ± 5.4 µM; in “in vitro [4]” it was 10.8 ± 0.8 µM. Also, the concentration for half-maximal inhibition (IC50) was over 8 µM in [3], 67.5 ± 2.7 µM in the data set with rVSV-ΔG-EboV-GP and 124 ± 2.7 µM in the data set with rVSV-ΔG-MarV-GP.

As to `NC(=O)c1ncn([C@@H]2O[C@H](CO)[C@@H](O)[C@H]2O)n1` [Ribavirin, reference compound], the IC50 in data set [3] worked out at 24.6 ± 3.7 µM. This compound also registered a CC50 in “in vitro [4]” of over 2000 µM.

With `CC(N)C12CC3CC(CC(C3)C1)C2` (stereo not drawn) [Rimantadine, reference compound], the 50% inhibitory concentration (IC50) in data set [3] was 67 ± 4.9 µM. The compound also had a CC50 in “in vitro [4]” of 335 ± 27 µM.

On to `CC1CCN(CCC(=O)O[C@@H]2C[C@@H]3CC[C@@]2(C)C3(C)C)CC1` [Ib], for which the IC50 in data set [7] is 15.3 µM; in data set [8], 2.2 µM; in [9], 54.3 µM.

As for `O=C(NN1C(=O)[C@@H]2[C@@H]3C=C[C@@H]([C@H]4C[C@@H]34)[C@@H]2C1=O)c1ccc(C(F)(F)F)cc1` [ST-246, reference compound], the CC50 in the data set “in vitro [2]” stood at 1280 ± 202 µM. In addition, the IC50 in data set [10] was determined as 0.01 ± 0.003 µM.

For the compound `CC1(C)[C@@H]2CC[C@@]1(C)[C@H](OCCCN1CCCCCC1)C2` (racemic) [Compound 8b, (±)-1-(3-((1,7,7-Trimethylbicyclo(2.2.1)heptan-2-yloxy)propyl)azepane], the CC50 was 23.7 ± 2.7 µM in the data set “in vitro [2]”, 704 ± 10.3 µM in the data set “in vitro [1]” and 374 ± 22.8 µM in the data set “in vitro [4]”. Besides, in [3], the IC50 was 320 ± 36.9 µM.

Take `CC1(C)[C@H]2CC[C@]1(C)[C@H](OC(=O)CCN1CCCCC1)C2` [Ia]: the half-maximal inhibitory concentration (IC50) with vaccinia virus (VV) is 121 µM; in [7], 7.8 µM; in data set [8] it was 3.7 µM; in data set [9] it was 47.5 µM.

As to `CN1CCN(CCC(=O)O[C@@H]2C[C@@H]3CC[C@@]2(C)C3(C)C)CC1` [Ic], the IC50 was 64.8 µM in the data set with vaccinia virus (VV) and 1.9 µM in data set [7].

`CC1(C)[C@@H]2CC[C@@]1(C)[C@H](OCCN1CCCCCC1)C2` (racemic) [Compound 8a, (±)-1-(2-(1,7,7-Trimethylbicyclo(2.2.1)heptan-2-yloxy)ethyl)azepane]: the CC50 in “in vitro [2]” was 19.1 ± 2.5 µM; in the data set “in vitro [1]” it was 721 ± 14.4 µM; in “in vitro [4]” it was 50.5 ± 4.5 µM. Also, the IC50 with rVSV-ΔG-G is 361 ± 10.8 µM; in [3], 35.3 ± 5 µM; with rVSV-ΔG-EboV-GP it was 112 ± 3.6 µM; with rVSV-ΔG-MarV-GP, 90.2 ± 3.6 µM.

On to `Nc1ccn(C[C@@H](CO)OCP(=O)(O)O)c(=O)n1` [Cidofovir, reference compound], for which the CC50 in the data set “in vitro [2]” worked out at 475 ± 30.1 µM. Further, in [10], the IC50 came to 40 ± 1.2 µM.

Take `CC1(C)[C@@H]2CC[C@@]1(C)[C@H](OCCCN1CCOCC1)C2` (racemic) [Compound 7b, (±)-4-(3-(1,7,7-trimethylbicyclo(2.2.1)heptan-2-yloxy)propyl)morpholine]: the values for the CC50 in the data set “in vitro [2]”, in “in vitro [1]” and in the data set “in vitro [4]” were 174 ± 11.9 µM, 1440 ± 28.4 µM and 562 ± 48.2 µM, respectively. The half-inhibitory concentration (IC50) in [3] amounted to 24.2 ± 3.1 µM.

Take `CC1CCN(CCO[C@@H]2C[C@H]3CC[C@]2(C)C3(C)C)CC1` (racemic) [Compound 4a, (±)-4-Methyl-1-(2-(1,7,7-trimethylbicyclo(2.2.1)]heptan-2-yloxy)ethyl)piperidine]: the IC50 in the data set on rVSV-ΔG-G is 111 ± 3.6 µM; in data set [3], 37.9 ± 5.6 µM; in the data set on rVSV-ΔG-EboV-GP, 1.3 ± 0.1 µM; in the data set on rVSV-ΔG-MarV-GP it was 60.8 ± 1.8 µM. Also, in the data set on EBOV (strain Zaire), the “IC50 EBOV” value is recorded as “did not show antiviral activity”. Also, the values for the CC50 in the data set “in vitro [1]” and in the data set “in vitro [4]” were 447 ± 10.7 µM and over 1070 µM, respectively.

As for `CN1CCN(CCO[C@@H]2C[C@H]3CC[C@]2(C)C3(C)C)CC1` (racemic) [Compound 5a, (±)-1-Methyl-4-(2-(1,7,7-trimethylbicyclo(2.2.1)heptan-2-yloxy)ethyl)piperazine], the CC50 worked out at 100 ± 6.1 µM in the data set “in vitro [2]”, 653 ± 14.3 µM in the data set “in vitro [1]” and 28.5 ± 1.2 µM in the data set “in vitro [4]”. For the same compound, the figures for the IC50 (in [3]; with rVSV-ΔG-MarV-GP) were 13.2 ± 2 µM and 85.6 ± 1.8 µM, respectively.

`CC1(C)[C@@H]2CC[C@@]1(C)[C@H](OCCCN1CCCCC1)C2` (racemic) [Compound 3b, (±)-1-(3-(1,7,7-Trimethylbicyclo(2.2.1)heptan-2-yloxy)propyl)piperidine]: the CC50 was determined as 140 ± 8.7 µM in the data set “in vitro [2]”, 2120 ± 49.2 µM in “in vitro [1]” and 950 ± 52.5 µM in the data set “in vitro [4]”. Also, the IC50 in the data set on rVSV-ΔG-G is 946 ± 22.7 µM; in data set [3] it was 347 ± 41.1 µM; with rVSV-ΔG-EboV-GP, 473 ± 11.4 µM; in the data set with rVSV-ΔG-MarV-GP, 170 ± 3.8 µM.

`CN1CCN(CCCO[C@@H]2C[C@H]3CC[C@]2(C)C3(C)C)CC1` (racemic) [Compound 5b, (±)-1-Methyl-4-(3-(1,7,7-trimethylbicyclo(2.2.1)heptan-2-yloxy)propyl)piperazine]: the CC50 in the data set “in vitro [2]” was found to be 64.2 ± 3.1 µM; in “in vitro [1]” it was 109 ± 3.4 µM; in “in vitro [4]”, 51 ± 4.1 µM. The IC50 in data set [3] was over 37.4 µM.
